Test results published in US5874442A, “Tricyclic amides useful for inhibition of G-protein function and for treatment of proliferative disease” (Schering-Plough Corporation, priority 1996, dated 1999).

What was measured:
Type in all cases: cell-based
[1] = tested on: T24-BAG4 human bladder carcinoma cells expressing an activated H-ras gene; assay: Cell mat assay, T24-BAG4 tumor cells; conditions: Homo sapiens, 336 h, read-out: Tumor (T-24) IC50
Experimental: (§1) Compound-induced colony inhibition was assayed by addition of serial dilutions of compound directly to the growth medium 24 h after tumor cell planting, and incubating cells for an additional 14 d to allow colony formation. Assays were terminated by rinsing monolayers twice with phosphate-buffered saline (PBS), fixing the monolayers with a 1% glutaraldehyde solution in PBS, then visualizing tumor cells by staining with X-Gal (Price, J., et al., Lineage analysis in the vertebrate nervous system by retrovirus-mediated gene transfer, Proc. Natl. Acad. Sci.84, 156-160(1987)). […] Both IC50 values were obtained by determining the density of tumor cells and mat cells by visual inspection and enumeration of cells per colony and the number of colonies under the microscope.

[2] = tested on: DLD-1-BAG human colon carcinoma cells; assay: Cell mat assay, DLD-1-BAG tumor cells; conditions: Homo sapiens, DLD-1, 336 h, read-out: Tumor (DLD-1) IC50
Experimental: as §1
(§2) Additional assays were carried out by following essentially the same procedure as described above, but with substitution of alternative indicator tumor cell lines in place of the T24-BAG cells. The assays were conducted using either DLD-1-BAG human colon carcinoma cells expressing as activated K-ras gene or SW620-BAG human colon carcinoma cells expressing an activated K-ras gene.

[3] = tested on: SW620-BAG human colon carcinoma cells expressing an activated K-ras gene; assay: Cell mat assay, SW620-BAG tumor cells; conditions: Homo sapiens, SW-620, 336 h, read-out: Tumor (SW620) IC50, Mat assay, 14 d
Experimental: as §1, §2

H ras NIH 3T3 = assay: Soft agar assay; conditions: Mus musculus, NIH3T3, read-out: IC50, inhibition of human tumor cell growth, soft agar
AsPc-1 = assay: Soft agar assay; conditions: Homo sapiens, ASPC1; AsPc-1 (pancreatic) K ras mutation; read-out: IC50, inhibition of human tumor cell growth, soft agar
Experimental: (§3) Anchorage-independent growth is a characteristic of tumorigenic cell lines. Human tumor cells are suspended in growth medium containing 0.3% agarose and an indicated concentration of a farnesyl transferase inhibitor. The solution is overlayed onto growth medium solidified with 0.6% agarose containing the same concentration of farnesyl transferase inhibitor as the top layer. After the top layer is solidified, plates are incubated for 10-16 days at 37° C. under 5% CO2 to allow colony outgrowth. After incubation, the colonies are stained by overlaying the agar with a solution of MTT (3-[4,5-dimethylthiazol-2-yl]-2,5-diphenyltetrazolium bromide, Thiazolyl blue) (1 mg/mL in PBS). Colonies are counted and the IC50's determined.

BT474 (breast) = assay: Soft agar assay; conditions: Homo sapiens, BT-474, read-out: IC50, inhibition of human tumor cell growth, soft agar
Experimental: as §3

DLD 1 = assay: Soft agar assay; conditions: Homo sapiens; DLD 1 (colon) K ras mutation; read-out: IC50, inhibition of human tumor cell growth, soft agar
Experimental: as §3

DU 145 = assay: Soft agar assay; conditions: Homo sapiens; DU 145 (prostate) ras mut. not detected; read-out: IC50, inhibition of human tumor cell growth, soft agar
Experimental: as §3

Du4475 = assay: Soft agar assay; conditions: Homo sapiens, DU-4475; Du4475 (breast) ras mut. not detected; read-out: IC50, inhibition of human tumor cell growth, soft agar
Experimental: as §3

HBL100 = assay: Soft agar assay; conditions: Homo sapiens, HBL-100; HBL100 (breast) ras mut. not detected; read-out: IC50, inhibition of human tumor cell growth, soft agar
Experimental: as §3

HPAF II = assay: Soft agar assay; conditions: Homo sapiens; HPAF II (pancreatic) K ras mutation; read-out: IC50, inhibition of human tumor cell growth, soft agar
Experimental: as §3

HTB 119 (NCI H69) = assay: Soft agar assay; conditions: Homo sapiens; HTB 119 (NCI H69) (SCLC); read-out: IC50, inhibition of human tumor cell growth, soft agar
Experimental: as §3

HTB 173 (NCI H146) = assay: Soft agar assay; conditions: Homo sapiens; HTB 173 (NCI H146) (SCLC) ras mut. not detected; read-out: IC50, inhibition of human tumor cell growth, soft agar
Experimental: as §3

HTB 183 (NCI H661) = assay: Soft agar assay; conditions: Homo sapiens; HTB 183 (NCI H661) (NSCLC) ras mut. not detected; read-out: IC50, inhibition of human tumor cell growth, soft agar
Experimental: as §3

MCF-7 = assay: Soft agar assay; conditions: Homo sapiens, MCF7; MCF-7 (breast) ras mut. not detected; read-out: IC50, inhibition of human tumor cell growth, soft agar
Experimental: as §3

MDA MB 468 = assay: Soft agar assay; conditions: Homo sapiens; MDA MB 468 (breast) ras mut. not detected; read-out: IC50, inhibition of human tumor cell growth, soft agar
Experimental: as §3

MDA MB453 (breast) = assay: Soft agar assay; conditions: Homo sapiens, MDA-MB-453, read-out: IC50, inhibition of human tumor cell growth, soft agar
Experimental: as §3

PC3 (prostate) = assay: Soft agar assay; conditions: Homo sapiens, read-out: IC50, inhibition of human tumor cell growth, soft agar
Experimental: as §3

Compound: NC(=O)N1CCC(CC(=O)N2CCC([C@H]3c4ncc(Br)cc4CCc4cc(Cl)cc(Br)c43)CC2)CC1 [Example 10]
- IC50 [1]: < 1600 nM
- IC50 [2]: < 1600 nM
- IC50 [3]: 3100 nM
- IC50 (H ras NIH 3T3): 75 nM
- IC50 (AsPc-1): 3000 nM
- IC50 (BT474 (breast)): 1000 nM
- IC50 (DLD 1): 2500 nM
- IC50 (DU 145): 600 nM
- IC50 (Du4475): 600 nM
- IC50 (HBL100): < 600 nM
- IC50 (HPAF II): < 500 nM
- IC50 (HTB 119 (NCI H69)): 300 nM
- IC50 (HTB 173 (NCI H146)): 50 nM
- IC50 (HTB 183 (NCI H661)): 500 nM
- IC50 (MCF-7): < 600 nM
- IC50 (MDA MB 468): 600 nM
- IC50 (MDA MB453 (breast)): 600 nM
- IC50 (PC3 (prostate)): 1250 nM
